Like-named read-outs stand apart in the source and are kept apart here.
Test system: HIV-1 LAI envelope single-round infectious reporter virus
Test: Single-round infectious HIV-1 LAI luciferase reporter virus infection of MT2 cells
Type: cell-based
Conditions: Human immunodeficiency virus 1, MT2, 72 h
Text: Virus Production • Human embryonic Kidney cell line, 293T (HEK 293T), was propagated in Dulbecco's Modified Eagle Medium (Invitrogen, Carlsbad, Calif.) containing 10% fetal bovine serum (FBS, Sigma, St. Louis, Mo.). The human T-cell leukemia cell MT2 (AIDS Research and Reference Reagent Program, Cat. 237) was propagated in RPMI 1640 (Invitrogen, Carlsbad, Calif.) containing 10% fetal bovine serum (FBS, Hyclone, Logan, Utah)
Virus Infection • Single-round infectious reporter virus was produced by co-transfecting HEK 293T cells with plasmide expressing the HIV-1 LAI envelope along with a plasmid containing an HIV-1 LAI proviral cDNA with the envelope gene replaced by a firefly luciferase reporter gene (Chen et al., Ref 41). Transfections were performed using lipofectAMINE PLUS reagent as described by the manufacturer (Invitrogen, Carlsbad, Calif.). Experimental Procedure • 1. MT2 cells were plated in black, 384 well plates at a cell density of 5×10^3 cells per well in 25 μl RPMI 1640 containing 10% FBS. • 2. Compound (diluted in dimethylsulfoxide and growth medium) was added to cells at 12.5 μl/well, so that the final assay concentration would be ≦50 nM. • 3. 12.5 μl of single-round infectious reporter virus in Dulbecco's Modified Eagle Medium was added to the plated cells and compound at an approximate multiplicity of infection (MOI) of 0.01, resulting in a final volume of 50 μl per well. • 4. Virus-infected cells were incubated at 37 degrees Celsius in a CO2 incubator and harvested 72 h after infection. • 5. Viral infection was monitored by measuring luciferase expression in the infected cells using a luciferase reporter gene assay kit (Steady-Glo, Promega, Madison, Wis.) as described by the manufacturer. Luciferase activity was then quantified by measuring luminescence using an EnVision Multilabel Plate Readers (PerkinElmer, Waltham, Mass.). • 6. The percent inhibition for each compound was calculated by quantifying the level of luciferase expression in cells infected in the presence of each compound as a percentage of that observed for cells infected in the absence of compound and subtracting such a determined value from 100. • 7. An EC50 provides a method for comparing the antiviral potency of the compounds of this disclosure. The effective concentration for fifty percent inhibition (EC50) was calculated with the Microsoft Excel Xlfit curve fitting software. For each compound, curves were generated from percent inhibition calculated at 10 different concentrations by using a four parameter logistic model (model 205). Table 1 is the key for the data in Table 2.

[1] = read-out: EC50 Group from Table 1

| SMILES | EC50 [nM] | EC50 [1] [nM] |
| --- | --- | --- |
| O=C(C(=O)N1CCN(C(=S)c2ccccc2)CC1)c1c[nH]c2c(-n3ccnn3)ncc(F)c12 [Compound 2001, 1-(4-fluoro-7-(1H-1,2,3-triazol-1-yl)-1H-pyrrolo[2,3-c]pyridin-3-yl)-2-(4-(phenylcarbonothioyl)piperazin-1-yl)ethane-1,2-dione] | 0.027 | < 500 |
| CON=C(c1ccccc1)N1CCN(C(=O)C(=O)c2c[nH]c3c(-n4cnc(C)n4)ncc(OC)c23)CC1 [Compound 2004, 1-(4-methoxy-7-(3-methyl-1H-1,2,4-triazol-1-yl)-1H-pyrrolo[2,3-c]pyridin-3-yl)-2-(4-((methoxyimino)(phenyl)methyl)piperazin-1-yl)ethane-1,2-dione] | 0.019 | < 500 |
| CON=C(c1ccccc1)N1CCN(C(=O)C(=O)c2c[nH]c3c(-n4ccnn4)ncc(F)c23)CC1 [Compound 2002, 1-(4-fluoro-7-(1H-1,2,3-triazol-1-yl)-1H-pyrrolo[2,3-c]pyridin-3-yl)-2-(4-((methoxyimino)(phenyl)methyl)piperazin-1-yl)ethane-1,2-dione] | – | < 500 |
| CN(C)c1ccc(C(=S)N2CCN(C(=O)C(=O)c3c[nH]c4cccc(F)c34)CC2)cc1 [Compound 1001] | – | > 500 |
| CN(C)N=C(c1ccccc1)N1CCN(C(=O)C(=O)c2c[nH]c3c(-n4ccnn4)ncc(F)c23)CC1 [Compound 1003] | – | < 500 |
| O=C(C(=O)N1CCN(C(=NO)c2ccccc2)CC1)c1c[nH]c2c(-n3ccnn3)ncc(F)c12 [Compound 2005, 1-(4-fluoro-7-(1H-1,2,3-triazol-1-yl)-1H-pyrrolo[2,3-c]pyridin-3-yl)-2-(4-((hydroxyimino)(phenyl)methyl)piperazin-1-yl)ethane-1,2-dione] | 0.121 | < 500 |
